# Earlier results in patent publication US20180344730A1, “MEDICAMENT FOR TREATING MENTAL AND BEHAVIOURAL DISORDERS” (Sumitomo Dainippon Pharma Co., Ltd., priority 2012, published 2018).
# Assays:
# [1] = target: dopamine D2 receptors (Homo sapiens, UniProt P14416)
# [2] = target: serotonin 5-HT2A receptors (Homo sapiens, UniProt P28223)
# [3] = target: T1, muscarinic M1 receptors (Homo sapiens, UniProt P11229)
# T1 sequence (P11229 1-460): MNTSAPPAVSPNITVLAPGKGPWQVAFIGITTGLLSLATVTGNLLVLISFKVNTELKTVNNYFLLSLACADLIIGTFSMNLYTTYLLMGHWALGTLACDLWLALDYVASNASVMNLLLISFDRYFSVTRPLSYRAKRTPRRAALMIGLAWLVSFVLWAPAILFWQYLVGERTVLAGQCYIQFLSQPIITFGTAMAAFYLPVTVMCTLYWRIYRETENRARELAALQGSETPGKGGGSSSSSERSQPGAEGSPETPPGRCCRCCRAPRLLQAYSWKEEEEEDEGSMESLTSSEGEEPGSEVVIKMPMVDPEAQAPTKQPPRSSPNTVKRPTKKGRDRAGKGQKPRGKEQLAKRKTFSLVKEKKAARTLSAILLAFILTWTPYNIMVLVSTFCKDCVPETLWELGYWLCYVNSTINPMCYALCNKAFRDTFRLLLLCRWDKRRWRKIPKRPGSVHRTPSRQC
# [4] = target: T2, serotonin 5-HT1A receptors (Homo sapiens, UniProt P08908)
# T2 sequence (P08908 1-422): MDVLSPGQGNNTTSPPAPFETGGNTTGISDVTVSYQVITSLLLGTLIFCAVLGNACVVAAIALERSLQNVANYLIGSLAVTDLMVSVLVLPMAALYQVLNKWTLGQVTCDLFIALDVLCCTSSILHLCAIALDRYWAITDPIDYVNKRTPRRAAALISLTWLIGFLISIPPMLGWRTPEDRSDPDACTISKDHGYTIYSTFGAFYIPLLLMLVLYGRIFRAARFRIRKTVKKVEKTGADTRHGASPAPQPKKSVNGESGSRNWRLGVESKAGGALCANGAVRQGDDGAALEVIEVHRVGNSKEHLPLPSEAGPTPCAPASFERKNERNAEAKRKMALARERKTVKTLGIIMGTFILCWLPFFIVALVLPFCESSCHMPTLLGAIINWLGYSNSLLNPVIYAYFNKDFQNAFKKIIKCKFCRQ
# [5] = target: T3, noradrenaline α2C receptors (Homo sapiens, UniProt P18825)
# T3 sequence (P18825 1-462): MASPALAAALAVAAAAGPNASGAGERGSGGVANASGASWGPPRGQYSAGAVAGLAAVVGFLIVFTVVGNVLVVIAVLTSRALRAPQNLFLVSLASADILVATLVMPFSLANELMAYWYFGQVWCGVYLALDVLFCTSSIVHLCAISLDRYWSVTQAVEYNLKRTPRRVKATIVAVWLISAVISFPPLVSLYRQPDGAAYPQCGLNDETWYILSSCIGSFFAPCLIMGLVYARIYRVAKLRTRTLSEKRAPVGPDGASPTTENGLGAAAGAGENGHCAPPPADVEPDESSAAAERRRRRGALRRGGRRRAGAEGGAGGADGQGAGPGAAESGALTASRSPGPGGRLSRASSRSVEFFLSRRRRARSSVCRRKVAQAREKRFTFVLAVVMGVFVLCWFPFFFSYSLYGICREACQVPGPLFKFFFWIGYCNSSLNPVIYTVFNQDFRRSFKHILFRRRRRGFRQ
# [6] = target: serotonin 5-HT7 receptors (Homo sapiens, UniProt P34969)
# Sequence of serotonin 5-HT7 receptors (P34969 whole entry): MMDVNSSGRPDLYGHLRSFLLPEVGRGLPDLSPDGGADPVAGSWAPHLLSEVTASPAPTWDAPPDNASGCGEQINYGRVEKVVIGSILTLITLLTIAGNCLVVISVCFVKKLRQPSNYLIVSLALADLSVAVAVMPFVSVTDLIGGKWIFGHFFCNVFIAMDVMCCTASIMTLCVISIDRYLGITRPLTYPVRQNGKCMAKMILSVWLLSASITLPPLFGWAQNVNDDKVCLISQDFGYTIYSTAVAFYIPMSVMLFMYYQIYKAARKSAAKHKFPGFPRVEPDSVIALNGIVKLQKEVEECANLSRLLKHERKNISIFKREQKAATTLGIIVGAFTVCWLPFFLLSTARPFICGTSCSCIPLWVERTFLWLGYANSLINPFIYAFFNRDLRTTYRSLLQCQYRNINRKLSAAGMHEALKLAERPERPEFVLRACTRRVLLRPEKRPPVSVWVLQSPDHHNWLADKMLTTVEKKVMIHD
# [7] = target: histamine H1 receptors (Homo sapiens, UniProt P35367)
# Sequence of histamine H1 receptors (P35367 whole entry): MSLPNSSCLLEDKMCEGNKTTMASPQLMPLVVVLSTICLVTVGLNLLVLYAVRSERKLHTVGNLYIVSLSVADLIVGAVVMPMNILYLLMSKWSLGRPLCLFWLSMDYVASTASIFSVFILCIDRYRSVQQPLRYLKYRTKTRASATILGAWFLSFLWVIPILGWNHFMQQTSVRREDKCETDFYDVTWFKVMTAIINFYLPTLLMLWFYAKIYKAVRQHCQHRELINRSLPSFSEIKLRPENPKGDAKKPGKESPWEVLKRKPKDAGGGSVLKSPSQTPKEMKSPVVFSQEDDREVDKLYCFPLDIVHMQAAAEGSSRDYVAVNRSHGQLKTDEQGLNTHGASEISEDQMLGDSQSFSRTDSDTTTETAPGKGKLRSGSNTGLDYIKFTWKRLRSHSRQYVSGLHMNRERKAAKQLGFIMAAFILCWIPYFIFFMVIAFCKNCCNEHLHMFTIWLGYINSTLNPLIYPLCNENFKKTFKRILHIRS
# Sequence of dopamine D2 receptors (P14416 whole entry): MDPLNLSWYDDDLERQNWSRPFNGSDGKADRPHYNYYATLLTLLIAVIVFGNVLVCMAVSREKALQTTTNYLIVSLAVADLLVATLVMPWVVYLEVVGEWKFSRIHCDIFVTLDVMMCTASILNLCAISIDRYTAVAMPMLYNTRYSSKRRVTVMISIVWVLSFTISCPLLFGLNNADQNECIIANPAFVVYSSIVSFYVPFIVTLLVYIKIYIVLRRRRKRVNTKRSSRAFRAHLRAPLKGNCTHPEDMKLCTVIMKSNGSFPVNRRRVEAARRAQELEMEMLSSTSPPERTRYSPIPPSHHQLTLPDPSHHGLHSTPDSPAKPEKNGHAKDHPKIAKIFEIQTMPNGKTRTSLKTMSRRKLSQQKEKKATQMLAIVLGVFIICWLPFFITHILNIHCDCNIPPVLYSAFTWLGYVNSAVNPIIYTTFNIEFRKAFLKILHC
# Sequence of serotonin 5-HT2A receptors (P28223 whole entry): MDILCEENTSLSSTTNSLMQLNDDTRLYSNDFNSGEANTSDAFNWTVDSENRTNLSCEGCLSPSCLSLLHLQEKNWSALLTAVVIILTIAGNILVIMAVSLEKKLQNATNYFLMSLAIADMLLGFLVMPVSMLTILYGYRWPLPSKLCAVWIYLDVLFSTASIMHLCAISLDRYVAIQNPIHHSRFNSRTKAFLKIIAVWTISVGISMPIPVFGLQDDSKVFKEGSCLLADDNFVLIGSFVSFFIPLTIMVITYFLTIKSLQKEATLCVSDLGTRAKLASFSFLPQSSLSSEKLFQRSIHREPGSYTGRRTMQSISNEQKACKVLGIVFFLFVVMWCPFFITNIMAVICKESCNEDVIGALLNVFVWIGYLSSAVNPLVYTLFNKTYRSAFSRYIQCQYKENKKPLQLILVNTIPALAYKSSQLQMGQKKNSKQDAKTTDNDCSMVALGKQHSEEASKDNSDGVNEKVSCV
smiles,measurement,setting,value
"O=C1[C@@H]2[C@H]3CC[C@H](C3)[C@@H]2C(=O)N1C[C@@H]1CCCC[C@H]1CN1CCN(c2nsc3ccccc23)CC1 [Lurasidone, (3aR, 4S, 7R, 7aS)-2-{(1R, 2R)-2-[4-(1,2-benzisothiazol-3-yl)piperazin-1-ylmethyl]cyclo-hexylmethyl}hexahydro-4,7-methano-2H-isoindole-1,3-dione]",affinity for dopamine D2 receptors,[1],high affinity
same,affinity for serotonin 5-HT2A receptors,[2],high affinity
same,affinity for muscarinic M1 receptors,[3],minimal to no affinity
same,affinity for serotonin 5-HT1A receptors,[4],high affinity
same,affinity for noradrenaline α2C receptors,[5],high affinity
same,affinity for serotonin 5-HT7 receptors,[6],high affinity
same,affinity for histamine H1 receptors,[7],minimal to no affinity
